This experiment deals with T1, α-amylase.
T1 construct: gene AMY2
Nature of the experiment: DNS starch hydrolysis assay, absorbance at […] nm. It counts as biochemical.

Values after ≈ are worked out from the molar mass of the structure shown.

In the case of `CCCN(CCC)S(=O)(=O)c1ccc(-c2nnc(SCCCN3C(=O)c4ccccc4C3=O)o2)cc1` [compound 1, 4–(5-(3–(1,3-Dioxoisoindolin-2-yl)propylthio)-1,3,4-oxadiazol-2-yl)-N,N-dipropylbenzenesulfonamide], the “IC50 value” stood at 92.23 ± 0.23 µg/mL (≈ 174 µM).

Turning to `CCCN(CCC)S(=O)(=O)c1ccc(-c2nnc(SCCCCN3C(=O)c4ccccc4C3=O)o2)cc1` [compound 2, 4–(5-(4–(1,3-Dioxoisoindolin-2-yl)butylthio)-1,3,4-oxadiazol-2-yl)-N,N-dipropylbenzenesulfonamide], the “IC50 value” worked out at 76.92 ± 0.19 µg/mL (≈ 142 µM).

These data come from article PMC9154803, “Synthesis, X-ray diffraction analysis, quantum chemical studies and α-amylase inhibition of probenecid derived S-alkylphthalimide-oxadiazole-benzenesulfonamide hybrids” (Journal of Enzyme Inhibition and Medicinal Chemistry, 2022).
